Biological target: LRRK2 (Mus musculus, UniProt Q5S006)
Assay: LRRK2 degradation in bone marrow-derived macrophages
Format: cell-based
From the text: Bone marrow isolation and macrophage differentiation was modified from (Wells et al., 2004), employing L929 preconditioned medium as the source of M-CSF for differentiation. Briefly, scissors and forceps were used to dissect femurs and tibiae from adult mice, and muscle tissue was carefully removed from bones. Clean femurs and tibiae were placed in a tissue culture dish containing complete media. The ends of each bone were cut with scissors to expose bone marrow. Bone marrow was flushed with a 25-gauge needle attached to a 10 ml syringe containing complete media. Media containing bone marrow was passed through a 70 μm cell strainer and precursor cells were plated on non-tissue culture treated 10 cm bacteriological plates containing 10 ml complete media. This was marked as day 0 of isolation. On day three post-isolation, macrophages were topped up with 5 ml fresh complete media. On day seven post-isolation, macrophages were rinsed once with PBS and incubated with Versene for 5 minutes in a 37° C. 5% CO2 tissue culture incubator. Macrophages were detached with cell scrapers and were centrifuged at 1200 rpm for 5 minutes at room temperature. The Versene was aspirated and the remaining cell pellet was resuspended in complete media. The cell suspension was counted, and cells were seeded for experimental analysis in a 6-well format, in tissue culture treated dishes at a final cell density of one million cells per 6-well.
Culturing and passaging of adherent cell lines were carried out using aseptic technique in CL1 or CL2 (for PBMC isolation) biological safety cabinets. All cells were incubated in a 37° C. incubator with 5% CO2. Cell lines were regularly tested for mycoplasma contamination. For western blot assay, the cells were seeded in 6-well plates. […] The cell pellet was discarded, and supernatant was collected for analysis by quantitative immunoblotting. […] Protein concentrations of cell lysates were determined using the Bradford assay. […]

Chain of LRRK2 (Q5S006 whole entry): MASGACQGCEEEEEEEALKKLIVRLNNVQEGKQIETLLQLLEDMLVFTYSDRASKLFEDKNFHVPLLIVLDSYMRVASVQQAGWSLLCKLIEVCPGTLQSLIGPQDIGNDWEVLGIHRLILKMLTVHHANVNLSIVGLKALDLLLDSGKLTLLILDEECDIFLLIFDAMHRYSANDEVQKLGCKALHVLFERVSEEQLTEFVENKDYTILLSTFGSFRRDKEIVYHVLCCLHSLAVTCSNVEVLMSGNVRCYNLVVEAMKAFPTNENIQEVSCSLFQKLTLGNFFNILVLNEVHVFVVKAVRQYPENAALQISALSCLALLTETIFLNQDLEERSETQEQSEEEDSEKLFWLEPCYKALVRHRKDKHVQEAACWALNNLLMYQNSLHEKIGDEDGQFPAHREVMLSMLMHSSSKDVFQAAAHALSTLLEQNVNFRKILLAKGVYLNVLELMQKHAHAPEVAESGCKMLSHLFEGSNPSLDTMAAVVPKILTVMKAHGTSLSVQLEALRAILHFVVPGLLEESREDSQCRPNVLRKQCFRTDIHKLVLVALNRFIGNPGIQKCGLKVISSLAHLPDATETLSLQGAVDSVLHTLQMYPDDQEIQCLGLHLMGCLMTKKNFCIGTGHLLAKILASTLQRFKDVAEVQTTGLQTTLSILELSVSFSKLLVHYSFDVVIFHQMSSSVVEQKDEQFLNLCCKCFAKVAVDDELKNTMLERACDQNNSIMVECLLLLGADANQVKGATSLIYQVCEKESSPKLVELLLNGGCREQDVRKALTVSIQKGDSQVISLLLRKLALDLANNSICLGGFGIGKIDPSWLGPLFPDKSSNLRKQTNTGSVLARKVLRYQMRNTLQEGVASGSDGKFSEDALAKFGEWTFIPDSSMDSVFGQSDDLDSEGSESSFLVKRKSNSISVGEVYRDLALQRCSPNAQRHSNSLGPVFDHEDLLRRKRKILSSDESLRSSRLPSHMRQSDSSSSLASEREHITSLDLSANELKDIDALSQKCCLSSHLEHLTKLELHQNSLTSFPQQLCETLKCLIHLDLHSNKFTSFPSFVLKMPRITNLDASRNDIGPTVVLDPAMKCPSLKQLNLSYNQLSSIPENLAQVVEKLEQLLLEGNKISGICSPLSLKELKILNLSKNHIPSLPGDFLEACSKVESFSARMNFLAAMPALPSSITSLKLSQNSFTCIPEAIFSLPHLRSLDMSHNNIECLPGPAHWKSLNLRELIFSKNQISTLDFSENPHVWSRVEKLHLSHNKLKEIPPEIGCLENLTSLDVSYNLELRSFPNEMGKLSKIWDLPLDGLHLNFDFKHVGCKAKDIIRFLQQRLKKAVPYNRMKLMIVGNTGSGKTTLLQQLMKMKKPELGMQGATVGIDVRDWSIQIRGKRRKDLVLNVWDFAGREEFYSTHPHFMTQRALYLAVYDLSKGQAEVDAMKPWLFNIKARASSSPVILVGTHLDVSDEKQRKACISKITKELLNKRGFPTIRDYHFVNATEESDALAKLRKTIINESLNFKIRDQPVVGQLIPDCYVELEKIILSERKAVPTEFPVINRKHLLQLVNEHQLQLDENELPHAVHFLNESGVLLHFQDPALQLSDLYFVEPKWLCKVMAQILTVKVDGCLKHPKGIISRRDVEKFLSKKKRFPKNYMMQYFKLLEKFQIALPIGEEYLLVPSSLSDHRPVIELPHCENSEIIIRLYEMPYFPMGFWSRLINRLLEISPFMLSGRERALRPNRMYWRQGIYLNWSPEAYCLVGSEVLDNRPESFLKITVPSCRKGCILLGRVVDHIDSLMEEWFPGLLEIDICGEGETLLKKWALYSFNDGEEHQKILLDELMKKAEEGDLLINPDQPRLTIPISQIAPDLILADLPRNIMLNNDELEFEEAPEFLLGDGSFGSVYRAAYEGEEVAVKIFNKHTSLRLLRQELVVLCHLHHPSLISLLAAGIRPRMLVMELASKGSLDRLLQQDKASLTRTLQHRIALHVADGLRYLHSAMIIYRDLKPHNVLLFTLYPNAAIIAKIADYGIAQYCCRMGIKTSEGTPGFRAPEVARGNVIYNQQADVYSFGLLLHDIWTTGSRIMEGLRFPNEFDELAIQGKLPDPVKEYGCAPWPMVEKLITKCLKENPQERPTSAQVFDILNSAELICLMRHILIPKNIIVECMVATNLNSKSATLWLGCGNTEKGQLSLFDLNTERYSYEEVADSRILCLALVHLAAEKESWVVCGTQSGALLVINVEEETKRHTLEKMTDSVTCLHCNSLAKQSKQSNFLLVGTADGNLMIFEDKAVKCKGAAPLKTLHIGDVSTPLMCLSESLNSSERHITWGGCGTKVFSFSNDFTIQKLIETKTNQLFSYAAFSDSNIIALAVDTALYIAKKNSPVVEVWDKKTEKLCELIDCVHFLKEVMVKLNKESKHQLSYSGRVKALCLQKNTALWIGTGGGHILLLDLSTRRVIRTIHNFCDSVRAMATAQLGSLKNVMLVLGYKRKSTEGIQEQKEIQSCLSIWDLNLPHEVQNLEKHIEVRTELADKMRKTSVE

Row | LRRK2 degradation in macrophages (in words) | SMILES | LRRK2 protein level reduced in macrophages | DC50 (dose response) [nM]
1 | cannot degrade LRRK2 | CNc1nc(Nc2ccc(C(=O)N3CCN(C[C@H]4CC[C@H](CSC(C)(C)[C@H](NC(=O)C5(F)CC5)C(=O)N5C[C@@H](O)CC5C(=O)NCc5ccc(-c6scnc6C)cc5)CC4)CC3)cc2OC)ncc1Cl (stereo partly drawn) [Cis-XL01126, (2S,4S)-1-((R)-3-((((1r,4R)-4-((4-(4-((5-chloro-4-(methylamino)pyrimidin-2-yl)amino)-3-methoxybenzoyl)piperazin-1-yl)methyl)cyclohexyl)methyl)thio)-2-(1-fluorocyclopropane-1-carboxamido)-3-methylbutanoyl)-4-hydroxy-N-(4-(4-methylthiazol-5-yl)benzyl)pyrrolidine-2-carboxamide] | – | –
2 | – | CNc1nc(Nc2ccc(C(=O)N3CCN(C[C@H]4CC[C@H](CSC(C)(C)[C@H](NC(=O)C5(F)CC5)C(=O)N5C[C@H](O)CC5C(=O)NCc5ccc(-c6scnc6C)cc5)CC4)CC3)cc2OC)ncc1Cl (stereo partly drawn) [XL01126, (2S,4R)-1-((R)-3-((((1R,4R)-4-((4-(4-((5-chloro-4-(methylamino)pyrimidin-2-yl)amino)-3-methoxybenzoyl)piperazin-1-yl)methyl)cyclohexyl)methyl)thio)-2-(1-fluorocyclopropane-1-carboxamido)-3-methylbutanoyl)-4-hydroxy-N-(4-(4-methylthiazol-5-yl)benzyl)pyrrolidine-2-carboxamide] | 80-90% | 55
